Experimental data: patent US20080311103A1, “Anti-Inflammatory Peptides and Methods of Use Thereof” (YEDA RESEARCH AND DEVELOPMENT CO. LTD. at THE WEIZMANN …, priority 2004, published 2008)

What was measured:
[1] = test system: NF-κB; assay: Nuclear translocation of NF-κB in T cells (Western blot); format: cell-based; details: peptide 100 ng/ml for 2 hours, then anti-CD3 mAb 24 hr; human T cells
Description: To address the modulatory role of the wound fluid peptides on the signal transduction cascade leading to regulation of T-cell secretion of TNF-α(and IFN-γ, the nuclear translocation of NF-κB was detected by probing nuclear and cytoplasmic T-cell extracts using mAb specific for the p65 subunit of NF-κB. The nuclear protein Lamin B was used as continuatively expressed control protein for the quantification of protein amounts.
Human T cells. T cells were purified from the peripheral blood of healthy human donors (Blood Bank; Tel-Hashomer, Israel). The whole blood was incubated (20 min, 22° C.) with RosetteSep™ human T-cell enrichment cocktail (StemCell Technologies, Vancouver, BC, Canada). The remaining unsedimented cells were then loaded onto Lymphocyte Separation Medium (ICN Biomedicals; Belgium), isolated by density centrifugation, and washed with PBS. The purified cells (>95% CD3^+ T cells) so obtained were cultured in RPMI containing antibiotics and 10% heat-inactivated FCS. Western blot analysis of T-cell nuclear extracts. Purified T cells (5×10^6) were preincubated with the peptides (100 ng/ml) for 2 hours (37° C. in a 7% CO2, humidified atmosphere). The cells were then replated in 24-well plates pre-coated with anti-CD3 mAb for 24 hr (37° C. in a 7% CO2, humidified atmosphere). T cells were lysed in 10 mM HEPES, 1.5 mM MgCl2, 1 mM dithiothreitol (DTT), 1 mM PMSF, 0.5% Nonidet P-40. The lysates were incubated on ice for 10 min and centrifuged at 2000 rpm for 10 min at 4° C. The supernatants (cytoplasmic extracts) were transferred and the pellet (nuclei) was suspended in buffer containing 30 mM HEPES, 450 mM NaCl, 25% Glycerol, 0.5 mM EDTA, 6 mM DTT, 12 mM MgCl2 1 mM PMSF, 10 μg/ml leupeptin, 10 μg/ml pepstatin, 1% phosphatase inhibitor cocktail, and the suspension was incubated on ice for 30 min. The lysates were cleared by centrifugation (30 min, 14×10^3 rpm, 4° C.), and the resulting supernatants analyzed for protein content. […]

[2] = test system: BALB/C mice; assay: TNBS-induced colitis model of inflammatory bowel disease (IBD); format: in vivo, mouse; details: 50 μg/mouse SC daily; day 7 after TNBS
Experimental: BALB/C mice, which were anesthetized for 5-10 min, received by intrarectal administration, 30 μl of a solution of 2,4,6-trinitrobenzene sulfonic acid (TNBS; 100 mg/kg) dissolved in 0.9% NaCl and mixed with an equal volume of ethanol (50% ethanol). Animals were killed 7 days after TNBS administration.
Wound fluid peptides were administered once daily by subcutaneous (SC) administration starting 1 day before the induction of colitis and every day for the next 7 days as follows:
Treatment with the wound fluid peptides was evaluated at day 7 by determination of macroscopic inflammation scores. The colon of each mouse was examined under a dissecting microscope to evaluate the macroscopic lesions according to the Wallace criteria. The Wallace score lists macroscopic colon lesions on a scale from 0 to 10 based on features reflecting inflammation, such as hyperemia, thickening of the bowel, and extent of ulceration (Wallace, J. L., et al. 1989, Gastroenterology, 96:29).

[3] = test system: mice sensitized with oxazolone; format: in vivo, mouse; details: FIG. 1; peptides by implanted osmotic pump, 0.2 μg/hour for 7 days; ear measured 24 hours after oxazolone challenge; BALB/c mice
Experimental: Groups of 5 female inbred BALB/c mice (The Jackson Laboratory, Bar Harbor, Me.) were sensitized on the shaved abdominal skin with 2% oxazolone (100 μl) dissolved in acetone/olive oil [4:1 (vol/vol)] applied topically. Delayed type hypersensitivity (DTH) was elicited 5 days later by challenging the mice with 0.5% oxazolone in acetone/olive oil (10 μl given topically to each side of the ear). A constant area of the ear was measured immediately before and 24 hours after the challenge using a Mitutoyo engineer's micrometer. The percent inhibition of DTH is calculated as follows:
% Inhibition=[1-{(treated−negative control)/(positive control−negative control)}]×100.
The positive control is the DTH reaction to oxazolone elicited in sensitized mice without treatment. The negative control is the background swelling produced by the oxazolone antigen in naïve non-sensitized mice.
Peptides Nos. 1-5 were given to the mice by mini perfusion pumps (alzet osmotic pump model 2001), which contained the indicated peptide (40 μg; 200 μl). The pumps were implanted under the mouse skin one day before oxazolone sensitization and they released the peptide in a rate of 1 μl per hour (0.2 μg/hour) for 7 days.
Peptides Nos. 6-10 were given to the mice by subcutaneously injection (1 μg or 10 μg per mouse), every day, starting at one day before oxazolone sensitization and ending at day 5 post DTH initiation.

[4] = test system: T cells; assay: Chemotaxis assay: T cell migration toward SDF-1α; format: cell-based; details: concentration range 10-1000 ng/ml; SDF-1α 250 ng/ml; 3 hr
Experimental: The migration of ^51-[Cr]-labeled T cells was examined in […] Transwell chemotaxis apparatus (6.5-mm diameter; Corning, N.Y.), consisting of two compartments separated by polycarbonate filters (5 μm pore size) pretreated (1 hr, 37° C.) with FN (25 μg/ml). ^51-[Cr]-labeled T cells (2×10^5 in 100 μl of RPMI containing 0.1% BSA and antibiotics), which were pre-incubated with the indicated concentrations of peptides (30 min, 37° C.), were added to the upper chambers. The bottom chambers contained 0.6 ml of the same media, with or without human Stromal cell-Derived Factor-1α (SDF-1α; 250 ng/ml). After incubation at 37° C. for 3 hr (7.5% CO2-humidified atmosphere), cells that had transmigrated into the lower wells were collected, centrifuged, and lysed (in 100 μl of distilled water containing 1 M NaOH and 0.1% Triton X-100), and the radioactivity in the resulting supernatants was determined with a γ-counter. The percentage (±SD) of cell migration was calculated as the radioactivity counts in the lysates of the lower chambers (representative of the migrating cells) divided by the total counts (representative of 2×10^5 cells).

## WDNLEKETEGL [peptide No. 3, residues 96-106 of Apo A-I; identified in wound fluids, then synthesized]
[1]
  NF-κB translocation to the nucleus: significant down-regulation
[2]
  Wallace score (macroscopic inflammation score, scale 0 to 10): 4.0±1.3
[3]
  inhibition of DTH response: ~40%
[4]
  inhibition of T cell transmigration toward SDF-1α: did not show a significant inhibition
